The values below come from the NIST ThermoML archive (doi:10.1016/j.fluid.2005.01.012).

Structures are written as SMILES. ± gives the expanded uncertainty stated by the source.

This data set in a line: refractive index (Na D-line) (dimensionless). The conditions noted are these: 293.1 K; 101.33 kPa; Liquid; Standard Abbe refractometry.
With `CN1CCCC1=O` [N-methylpyrrolidone], the refractive index stood at 1.4696 ± 0.0008.
Take `CCCCCCCCCCCC` [dodecane]: the refractive index turned out to be 1.422 ± 0.0008.
On to `CCCCCCCCCCCCCCCCC` [heptadecane], for which the refractive index worked out at 1.4362 ± 0.0008.
In the case of `CCCc1ccccc1` [propylbenzene], the refractive index is 1.4915 ± 0.0008.
Take `CCCCCCCCCCCCCC` [tetradecane]: the refractive index is 1.4291 ± 0.0008.

Broadly, the refractive index is the speed of light in vacuum divided by its phase velocity in the sample.
